Experiments:
[1] = biological target: T1, human bradykinin receptor 1 (B1R) (Homo sapiens, UniProt P46663); experiment: Functional study on the bradykinin receptor 1 (B1R), human: FLIPR Ca2+ influx assay; format: cell-based; details: test substance 10 μM, CHO K1 cells transfected with human B1R, Lys-Des-Arg9-bradykinin at EC80, Ca2+ influx (Fluo-4, FLIPR); for inhibition at 10 µM: read-out: B1R antagonism, human [10 μM] % inhibition
T1 construct: expressed in transfected cells; host or cells: CHO K1 cells
T1 sequence (P46663 1-353): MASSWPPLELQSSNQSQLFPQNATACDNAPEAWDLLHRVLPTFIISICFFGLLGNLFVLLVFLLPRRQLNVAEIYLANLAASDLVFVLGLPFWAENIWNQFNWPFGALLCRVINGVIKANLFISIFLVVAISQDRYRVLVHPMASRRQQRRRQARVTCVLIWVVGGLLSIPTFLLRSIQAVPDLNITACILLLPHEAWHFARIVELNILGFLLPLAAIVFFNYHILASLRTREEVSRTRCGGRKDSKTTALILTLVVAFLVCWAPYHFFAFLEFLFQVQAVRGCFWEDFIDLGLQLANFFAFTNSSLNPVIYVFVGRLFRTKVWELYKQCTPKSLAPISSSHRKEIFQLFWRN
Method in brief: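 CHO K1 cells stably expressing human B1R were loaded with Fluo-4, and Ca2+ fluorescence was read on FLIPR (ex 488/em 540 nm). Compound was added first (10 μM for % activation against Lys-Des-Arg9-bradykinin ≥0.5 nM). After 10-20 min, Lys-Des-Arg9-bradykinin was added at EC80 for % inhibition; IC50 came from concentration series, n=2-3, N≥2.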

human μ-opiate receptor = biological target: T2, human μ-opiate receptor (Homo sapiens, UniProt P35372); experiment: Affinity for the human μ-opiate receptor ([3H]-naloxone displacement, SPA); details: test substance 1 μmol/l, inhibition of specific [3H]-naloxone binding, CHO-K1 receptor membrane preparation; for inhibition at 1 µM: read-out: μ-Opioid receptor [1 μM] % inhibition
T2 construct: purchased PerkinElmer Life Sciences, Zaventem, Belgium RB-HOM; host or cells: CHO-K1 cells (membrane preparation)
Method in brief: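 Membranes from CHO-K1 cells expressing human μ-opiate receptor were incubated 90 min at room temperature with 1 nmol/l [3H]-naloxone and WGA-SPA beads in 50 mmol/l Tris-HCl with 0.06% BSA; non-specific binding was defined with 100 μmol/l naloxone. Percent inhibition was measured at 1 μmol/l, IC50 was derived from concentration series, and Ki was obtained by Cheng-Prusoff.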

[2] = biological target: T3, bradykinin receptor 1 (B1R) of the rat (Rattus norvegicus, UniProt P97583); experiment: Functional study on the bradykinin receptor 1 (B1R), rat: FLIPR Ca2+ influx assay; format: cell-based; details: test substance 10 μM, CHO K1 cells transfected with rat B1R, Des-Arg9-bradykinin at EC80, Ca2+ influx (Fluo-4, FLIPR); for inhibition at 10 µM: read-out: B1R antagonism, rat [10 μM] % inhibition
T3 construct: expressed in transfected cells; host or cells: CHO K1 cells
T3 sequence (P97583 1-337): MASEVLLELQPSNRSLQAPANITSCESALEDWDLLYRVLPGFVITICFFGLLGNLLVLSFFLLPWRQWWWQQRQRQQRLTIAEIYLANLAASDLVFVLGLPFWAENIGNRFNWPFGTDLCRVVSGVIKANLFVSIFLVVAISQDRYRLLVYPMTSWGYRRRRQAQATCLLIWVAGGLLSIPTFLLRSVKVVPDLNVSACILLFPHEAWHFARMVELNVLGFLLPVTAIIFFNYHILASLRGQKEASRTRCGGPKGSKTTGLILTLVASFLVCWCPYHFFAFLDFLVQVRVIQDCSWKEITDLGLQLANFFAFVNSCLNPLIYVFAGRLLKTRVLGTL
Method in brief: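 CHO K1 cells stably expressing rat B1R, Fluo-4-loaded, read on FLIPR (ex 488/em 540 nm, peak fluorescence). Test substances added first (agonism vs 10 μM Des-Arg9-bradykinin), then after 10-20 min Des-Arg9-bradykinin at EC80; % inhibition and IC50 from concentration series, n=2-3, N≥2.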

T2 sequence (P35372 whole entry): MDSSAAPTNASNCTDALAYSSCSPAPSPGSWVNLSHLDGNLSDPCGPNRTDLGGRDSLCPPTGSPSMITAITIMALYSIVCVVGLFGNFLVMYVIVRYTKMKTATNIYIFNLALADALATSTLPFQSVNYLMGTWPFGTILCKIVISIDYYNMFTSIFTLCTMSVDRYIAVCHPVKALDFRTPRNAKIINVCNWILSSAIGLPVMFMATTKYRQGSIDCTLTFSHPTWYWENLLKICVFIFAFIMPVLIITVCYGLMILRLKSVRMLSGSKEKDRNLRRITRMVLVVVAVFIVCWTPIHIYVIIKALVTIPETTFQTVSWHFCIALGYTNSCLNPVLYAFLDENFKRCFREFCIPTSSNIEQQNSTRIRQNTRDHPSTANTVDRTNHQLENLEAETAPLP

Compound | inhibition at 10 µM [1] [%] | inhibition at 1 µM (human μ-opiate receptor) [%] | inhibition at 10 µM [2] [%] | B1R antagonism, human [10 μM] % inhibition [1] [%] | μ-Opioid receptor [1 μM] % inhibition (human μ-opiate receptor) [%] | B1R antagonism, rat [10 μM] % inhibition [2] [%]
CN1CCN(C(c2ccccc2)C2CCN(C(=O)CC(NS(=O)(=O)c3ccc4ccccc4c3)c3ccccc3)CC2)CC1 (stereo not drawn) [Example 114, N-(3-(4-((4-methylpiperazin-1-yl)(phenyl)methyl)piperidin-1-yl)-3-oxo-1-phenylpropyl)naphthalene-2-sulfonamide] | 93 | 40 | 71 |  |  | 
CN1CCN(C(c2cccc(F)c2)C2CCN(C(=O)CC3CCCCN3S(=O)(=O)c3cccc(C(F)(F)F)c3)CC2)CC1 (stereo not drawn) [Example 115, 1-(4-((3-fluorophenyl)(4-methylpiperazin-1-yl)methyl)piperidin-1-yl)-2-(1-(3-(trifluoromethyl)phenylsulfonyl)piperidin-2-yl)ethanone] | 87 | 11 | 52 |  |  | 
CN1CCN(C(Cc2ccccc2)C2CCN(C(=O)CC(NS(=O)(=O)c3ccc4ccccc4c3)c3ccccc3)CC2)CC1 (stereo not drawn) [Example 116, N-(3-(4-(1-(4-methylpiperazin-1-yl)-2-phenylethyl)piperidin-1-yl)-3-oxo-1-phenylpropyl)naphthalene-2-sulfonamide] | 102 | 7 | 93 |  |  | 
Cc1cc(S(=O)(=O)N2CCCCC2CCC(=O)N2CCC(C(Cc3ccccc3)N3CCN(C)CC3)CC2)c(C)cc1Cl (stereo not drawn) [Example 118, 3-(1-(4-chloro-2,5-dimethylphenylsulfonyl)piperidin-2-yl)-1-(4-(1-(4-methyl-piperazin-1-yl)-2-phenylethyl)piperidin-1-yl)propan-1-one] | 101 | 3 | 93 |  |  | 
Cc1cc(S(=O)(=O)N2CCCCC2CCC(=O)N2CCC(C(CCc3ccccc3)N3CCN(C)CC3)CC2)c(C)cc1Cl (stereo not drawn) [Example 119, 3-(1-(4-chloro-2,5-dimethylphenylsulfonyl)piperidin-2-yl)-1-(4-(1-(4-methyl-piperazin-1-yl)-3-phenylpropyl)piperidin-1-yl)propan-1-one] | 102 | 52 | 97 |  |  | 
Cc1cc(S(=O)(=O)N2CCCCC2CCC(=O)N2CCC(C(c3cccc(F)c3)N3CCN(C)CC3)CC2)c(C)cc1Cl (stereo not drawn) [Example 120, 3-(1-(4-chloro-2,5-dimethylphenylsulfonyl)piperidin-2-yl)-1-(4-((3-fluorophenyl)(4-methylpiperazin-1-yl)methyl)piperidin-1-yl)propan-1-one] | 105 | 41 | 73 |  |  | 
Cc1cc(S(=O)(=O)N2CCCCC2CCC(=O)N2CCC(C(c3ccc(F)cc3)N3CCN(C)CC3)CC2)c(C)cc1Cl (stereo not drawn) [Example 121, 3-(1-(4-chloro-2,5-dimethylphenylsulfonyl)piperidin-2-yl)-1-(4-((4-fluorophenyl)(4-methylpiperazin-1-yl)methyl)piperidin-1-yl)propan-1-one] | 105 | 6 | 58 |  |  | 
N-(3-(4-(1-(4-methylpiperazin-1-yl)-3-phenylpropyl)piperidin-1-yl)-3-oxo-1-phenylpropyl)naphthalene-2-sulfonamide [Example 113] |  |  |  | 97 | 21 | 39

From patent US8119633B2, “Substituted sulfonamide compounds” (Gruenenthal GmbH, priority 2007, dated 2012)
